From patent US20260007613A1, “LONG-ACTING LOW-TOXICITY NOVEL CATIONIC LIPID COMPOUNDS AND COMPOSITION THEREOF” (BEIJING YOUCAREKECHUANG PHARMACEUTICAL TECHNOLOGY CO., LTD., priority 2023, published 2026)
“And” between values parts separate entries of the source, which are not always exact repeats. Identical values can stand only once.

Columns and labels:
[1] = Particle size and polydispersity index (PDI) of lipid nanoparticles by dynamic light scattering; format: physicochemical; details: LNP formulation prepared from the cationic lipid, 25° C.
Protocol: The particle size and polydispersity index (PDI) were determined by dynamic light scattering using Malvern laser particle size analyzer.
10 μL of the liposome solution was weighed, diluted to 1 mL with RNase-free deionized water, and added to the sample pool. Each sample was measured in triplicate. The measurement conditions were: […] scattering angle, and 25° C.

293T cells [2] = test: Fluorescent detection of Fluc-mRNA (cell transfection efficiency of LNP formulations); format: cell-based
Protocol: (§1) Cell recovery and passage: 293T cells were recovered, cultured in a culture dish, and passaged to the required number of cells.
(§2) Seeding plate: The cells in the culture dish were digested and counted. Cells were spread in a 96-well plate at 10,000 cells per well and in a 12-well plate at 150,000 cells per well. Cells were cultured overnight until the cells adhered to the wall.
(§3) Cell recovery and passage: the method was the same as in Example 3.
(§4) Seeding plate: the method was the same as in Example 3.
An LNP formulation containing […] of Fluc-mRNA (the carrier components of the LNP formulation were cationic lipid, neutral lipid, structured lipid and polymer-conjugated lipid with a molar ratio of 49:10:39.5:1.5, wherein the cationic lipid was listed in Table 1) was added to the cell culture medium of a 96-well plate, and further incubated for 24 hours. The corresponding reagent was added according to the instructions of the […] Luciferase Assay Kit, and the fluorescence expression intensity of each well was detected by an IVIS fluorescence detection system. This test verified the transfection efficiencies of LNP formulations in cells, see Tables 4-7 for specific test results.

293T cells [3] = test: Cell survival rate determination (CCK-8); format: cell-based
Protocol: as §1, §2, §3, §4
An LNP formulation containing […] of Fluc-mRNA (the carrier components of the LNP formulation were cationic lipid, neutral lipid, structured lipid and polymer-conjugated lipid with a molar ratio of 49:10:39.5:1.5, wherein the cationic lipid was listed in Table 1) and the formulation of Lipofectamine 3000 were added to the cell culture medium of a 96-well plate, and further cultivated for 24 hours. 10 μL of CCK-8 solution was then added to each well, and the culture plate was incubated in an incubator for 1 hour. The absorbance at 450 nm was measured by a microplate reader.
Cell survival rate can represent the toxicity of cationic lipids to cells. The higher the cell survival rate, the lower the toxicity to cells.

female BALB/C mice = test: Live imaging in mice: protein expression of Fluc-mRNA delivered by LNP formulations; format: in vivo; details: for average radiation intensity, times that of ALC-0315: comparator ALC-0315; for average radiation intensity, times that of HHMA: comparator HHMA; for average radiation intensity, times that of SM-102: comparator SM-102; for expression of mRNA in mice, times that of YK-302: comparator YK-302; for expression amount, times that of YK-321: comparator YK-321; for average radiation intensity, times that of compound 21: comparator compound 21; for average radiation intensity, times that of compound 23: comparator compound 23
Protocol: In addition, the protein expression and duration of mRNA in mice delivered by the cationic lipid delivery carriers designed were also verified.
The LNP formulation containing […] Fluc-mRNA was injected intramuscularly into female BALB/C mice aged 4 to 6 weeks old and weighed 17 to 19 g, and the mice were intraperitoneally injected with fluorescent imaging substrate at specific time points after administration (6 h, 24 h, 48 h and 7 d), where the mice were free to move for 5 minutes, and then the average radiation intensity (corresponding to fluorescence expression intensity) of the protein expression of the mRNA carried by the LNP in the mice was detected by the IVIS Spectrum small animal live imaging device.

CCCCCCCCC(CCCCCCCC)OC(=O)CCCCCN(CCCCCC(=O)OC(CCCCCCCC)CCCCCCCC)C[C@H](O)CN(CCO)CCO [YK-318, (S)-bis(heptadecan-9-yl)-6,6′-((3-(bis(2-hydroxyethyl)amino)-2-hydroxypropyl)azanediyl)dihexanoate]
PDI (%) [1]: 14.8% | Particle size (nm) [1]: 173 nm | Relative light unit (RLU) (293T cells [2]; LNP formulation of Fluc-mRNA, 96-well plate, 24 hours): 11190068 RLU | Multiples (YK-305) (293T cells [2]; RLU of YK-305 / RLU of the lipid of the line): 2.45 | Multiples (YK-310) (293T cells [2]; RLU of YK-310 / RLU of the lipid of the line): 2.31 | Multiples (YK-312) (293T cells [2]; RLU of YK-312 / RLU of the lipid of the line): 1.80 | Multiples (YK-318) (293T cells [2]; RLU of YK-318 / RLU of the lipid of the line, Tables 5, 7, 11): 1.00 | Multiples (YK-319) (293T cells [2]; RLU of YK-319 / RLU of the lipid of the line, Tables 5, 7, 11): 2.19 | Ratio relative to SM-102 (293T cells [2]; RLU of the lipid / RLU of SM-102, times that of SM-102): 6.98 | cell transfection efficiency, times that of ALC-0315 (293T cells [2]; comparator ALC-0315): 5.50 times | cell transfection efficiency, times that of HHMA (293T cells [2]; comparator HHMA): 5.58 times | cell transfection efficiency, times that of Lipofectamine 3000 (293T cells [2]; comparator Lipofectamine 3000): 9.44 times | cell transfection efficiency, times that of YK-009 (293T cells [2]; comparator YK-009): 2.19 times | cell transfection efficiency, times that of YK-301 (293T cells [2]; comparator YK-301): 13.28 times | cell transfection efficiency, times that of YK-302 (293T cells [2]; comparator YK-302): 402.84 times | cell transfection efficiency, times that of YK-303 (293T cells [2]; comparator YK-303): 17.87 times | cell transfection efficiency, times that of YK-304 (293T cells [2]; comparator YK-304): ~400 times and 540.95 times | cell transfection efficiency, times that of YK-306 (293T cells [2]; comparator YK-306): 5.09 times | cell transfection efficiency, times that of YK-307 (293T cells [2]; comparator YK-307): 2.46 times | cell transfection efficiency, times that of YK-308 (293T cells [2]; comparator YK-308): 4.86 times | cell transfection efficiency, times that of YK-309 (293T cells [2]; comparator YK-309): ~90 times and 89.26 times | cell transfection efficiency, times that of YK-311 (293T cells [2]; comparator YK-311): 5.70 times | cell transfection efficiency, times that of YK-313 (293T cells [2]; comparator YK-313): 12.91 times | cell transfection efficiency, times that of YK-314 (293T cells [2]; comparator YK-314): 20.44 times | cell transfection efficiency, times that of YK-315 (293T cells [2]; comparator YK-315): 7.05 times | cell transfection efficiency, times that of YK-316 (293T cells [2]; comparator YK-316): 2.33 times | cell transfection efficiency, times that of YK-317 (293T cells [2]; comparator YK-317): 3.10 times | cell transfection efficiency, times that of YK-320 (293T cells [2]; comparator YK-320): 4.14 times | cell transfection efficiency, times that of YK-321 (293T cells [2]; comparator YK-321): 7.97 times | cell transfection efficiency, times that of compound 21 (293T cells [2]; comparator compound 21): 7.81 times | cell transfection efficiency, times that of compound 23 (293T cells [2]; comparator compound 23): 8.25 times | Cell survival rate (%) (293T cells [3]; LNP formulation of Fluc-mRNA, 24 hours, CCK-8): 75.56% | cell survival rate higher than ALC-0315 (293T cells [3]; difference of survival rates, comparator ALC-0315): 24.53% | cell survival rate higher than HHMA (293T cells [3]; difference of survival rates, comparator HHMA): 9.09% | cell survival rate higher than Lipofectamine 3000 (293T cells [3]; difference of survival rates, comparator Lipofectamine 3000): 50.55% | cell survival rate higher than SM-102 (293T cells [3]; difference of survival rates, comparator SM-102): 6.11% | cell survival rate higher than YK-301 (293T cells [3]; difference of survival rates, comparator YK-301): 22.60% | cell survival rate higher than YK-302 (293T cells [3]; difference of survival rates, comparator YK-302): 59.13% | cell survival rate higher than YK-303 (293T cells [3]; difference of survival rates, comparator YK-303): 12.24% | cell survival rate higher than YK-304 (293T cells [3]; difference of survival rates, comparator YK-304): 41.40% | cell survival rate higher than YK-306 (293T cells [3]; difference of survival rates, comparator YK-306): 33.37% | cell survival rate higher than YK-307 (293T cells [3]; difference of survival rates, comparator YK-307): 14.42% | cell survival rate higher than YK-308 (293T cells [3]; difference of survival rates, comparator YK-308): 4.57% | cell survival rate higher than YK-309 (293T cells [3]; difference of survival rates, comparator YK-309): 43.95% | cell survival rate higher than YK-311 (293T cells [3]; difference of survival rates, comparator YK-311): 5.50% | cell survival rate higher than YK-313 (293T cells [3]; difference of survival rates, comparator YK-313): 6.63% | cell survival rate higher than YK-314 (293T cells [3]; difference of survival rates, comparator YK-314): 7.68% | cell survival rate higher than YK-315 (293T cells [3]; difference of survival rates, comparator YK-315): 4.28% | cell survival rate higher than YK-316 (293T cells [3]; difference of survival rates, comparator YK-316): 5.03% | cell survival rate higher than YK-317 (293T cells [3]; difference of survival rates, comparator YK-317): 16.38% | cell survival rate higher than YK-320 (293T cells [3]; difference of survival rates, comparator YK-320): 4.49% | cell survival rate higher than YK-321 (293T cells [3]; difference of survival rates, comparator YK-321): 3.22% | cell survival rate higher than compound 21 (293T cells [3]; difference of survival rates, comparator compound 21): 5.35% | cell survival rate higher than compound 23 (293T cells [3]; difference of survival rates, comparator compound 23): 4.06% | average radiation intensity, times that of ALC-0315 (female BALB/C mice; 6 h): 3.85 times | average radiation intensity, times that of HHMA (female BALB/C mice; 6 h): 5.11 times | average radiation intensity, times that of SM-102 (female BALB/C mice; 6 h): 4.74 times | expression of mRNA in mice, times that of YK-302 (female BALB/C mice; 6 h): 228.10 times | expression amount, times that of YK-321 (female BALB/C mice; 6 h): 6.45 times | average radiation intensity, times that of compound 21 (female BALB/C mice; 6 h): 5.45 times | average radiation intensity, times that of compound 23 (female BALB/C mice; 6 h): 5.64 times | average radiation intensity (female BALB/C mice; 6 h after intramuscular injection): 3325680 | average radiation intensity, times that of ALC-0315 (female BALB/C mice; 24 h): 5.08 times | average radiation intensity, times that of HHMA (female BALB/C mice; 24 h): 8.08 times | average radiation intensity, times that of SM-102 (female BALB/C mice; 24 h): 8.04 times | expression of mRNA in mice, times that of YK-302 (female BALB/C mice; 24 h): 244.83 times | expression amount, times that of YK-321 (female BALB/C mice; 24 h): 9.57 times | average radiation intensity, times that of compound 21 (female BALB/C mice; 24 h): 8.82 times | average radiation intensity, times that of compound 23 (female BALB/C mice; 24 h): 9.27 times | average radiation intensity (female BALB/C mice; 24 h after intramuscular injection): 968540 | average radiation intensity, times that of ALC-0315 (female BALB/C mice; 48 h): 8.96 times | average radiation intensity, times that of HHMA (female BALB/C mice; 48 h): 10.96 times | average radiation intensity, times that of SM-102 (female BALB/C mice; 48 h): 10.96 times | expression of mRNA in mice, times that of YK-302 (female BALB/C mice; 48 h): 348.11 times | expression amount, times that of YK-321 (female BALB/C mice; 48 h): 9.76 times | average radiation intensity, times that of compound 21 (female BALB/C mice; 48 h): 11.52 times | average radiation intensity, times that of compound 23 (female BALB/C mice; 48 h): 10.77 times | average radiation intensity (female BALB/C mice; 48 h after intramuscular injection): 356810 | average radiation intensity, times that of ALC-0315 (female BALB/C mice; 7 d): 7.19 times | average radiation intensity, times that of HHMA (female BALB/C mice; 7 d): 8.63 times | average radiation intensity, times that of SM-102 (female BALB/C mice; 7 d): 7.65 times | expression of mRNA in mice, times that of YK-302 (female BALB/C mice; 7 d): 131.92 times | expression amount, times that of YK-321 (female BALB/C mice; 7 d): 7.69 times | average radiation intensity, times that of compound 21 (female BALB/C mice; 7 d): 7.86 times | average radiation intensity, times that of compound 23 (female BALB/C mice; 7 d): 8.12 times | average radiation intensity (female BALB/C mice; 7 d after intramuscular injection): 50659
